Reference: patent publication US9238039B2, “Pyrazolo[1,5-A]pyrimidines for antiviral treatment” (Gilead Sciences, Inc., priority 2010, dated 2016)

System: RSV strain A2
Assay: RSV antiviral cytoprotection assay in Hep2 cells (96-well and 384-well format, Cell TiterGlo read-out)
Type: cell-based, Respiratory Syncytial Virus (RSV)
Details: human respiratory syncytial virus; for inhibition at 0.5 µM: HEp-2, 0.5 uM, RSV-induced cytopathic effect in Hep2 cells, calculated from fitted dose response curve, normalized to 0% and 100%; for EC50: HEp-2, RSV-induced cytopathic effects, Hep2 cells, class symbols

| SMILES | EC50 [nM] | inhibition at 0.5 µM [%] |
| --- | --- | --- |
| CS(=O)(=O)Nc1ccc(Cl)cc1C(=O)N1CCCC[C@H]1c1cc2nc(C3CCC3)cc(N3CCOCC3)n2n1 [Compound 73] | 0.1 to 100 | 99 |
| CS(=O)(=O)Nc1ccc(Cl)cc1C(=O)N1CCCC[C@H]1c1cc2nc(N3CCC3)cc(N3CCOC3)n2n1 [Compound 74] | 0.1 to 100 | 100 |
| CS(=O)(=O)Nc1ccc(Cl)cc1C(=O)N1CCCC[C@H]1c1cc2nc(N3CCC3)cc(N3CC4(COC4)C3)n2n1 [Compound 75] | 0.1 to 100 | 100 |
| CN(C)[C@H]1CCN(c2cc(N3CCC3)nc3cc([C@@H]4CCCCN4C(=O)c4cc(Cl)ccc4NS(C)(=O)=O)nn23)C1 [Compound 76] | 0.1 to 100 | 100 |
| CS(=O)(=O)Nc1ccc(Cl)cc1C(=O)N1CCCC[C@H]1c1cc2nc(N3CC(O)C3)cc(N3CCOC3)n2n1 [Compound 77] | 0.1 to 100 | 100 |
| CNC1CCN(c2nc3cc([C@@H]4CCCCN4C(=O)c4cc(Cl)ccc4NS(C)(=O)=O)nn3cc2C)C1 (some centres unmarked) [Compound 78] | 0.1 to 100 | 98 |
| CS(=O)(=O)Nc1ccc(Br)cc1C(=O)N1CCCC[C@H]1c1cc2nc(N3CCC3)cc(N3CCOCC3)n2n1 [Compound 79] | 0.1 to 100 | 100 |
| CS(=O)(=O)Nc1ccc(Br)cc1C(=O)N1CCCC[C@H]1c1cc2nc(N3CC(O)C3)cc(N3CCOCC3)n2n1 [Compound 80] | 0.1 to 100 | 100 |
| CS(=O)(=O)Nc1ccc(Cl)cc1C(=O)N1CCCC[C@H]1c1cc2nc(N3CC(O)C3)cc(N3CCC(O)CC3)n2n1 [Compound 81] | 0.1 to 100 | 100 |
| Cc1cc(N2CC(O)C2)nc2cc([C@@H]3CCCCN3C(=O)c3cc(Br)ccc3NS(C)(=O)=O)nn12 [Compound 82] | 0.1 to 100 | 100 |
| CS(=O)(=O)Nc1ccc(Cl)cc1C(=O)N1CCCC[C@H]1c1cc2nc(N3CC(O)C3)cc(N3CCN(CC(F)(F)F)CC3)n2n1 [Compound 83] | 0.1 to 100 | 98 |
| CS(=O)(=O)Nc1ccc(Cl)cc1C(=O)N1CCCC[C@H]1c1cc2nc(N3CCC3)cc(N3CCN(CC(F)(F)F)CC3)n2n1 [Compound 84] | 0.1 to 100 | 100 |
| Cc1ccc(NS(C)(=O)=O)c(C(=O)N2CCCC[C@H]2c2cc3nc(C)c(C)c(-c4ccccc4)n3n2)c1 [Compound 86] | 0.1 to 100 | 99 |
| CC1(O)CN(c2cc(N3CCC3)nc3cc([C@@H]4CCCCN4C(=O)c4cc(Cl)ccc4NS(C)(=O)=O)nn23)C1 [Compound 105] | 0.1 to 100 | 100 |
| CS(=O)(=O)Nc1ccc(Cl)cc1C(=O)N1CCCC[C@H]1c1cc2nc(N3CCC3)cc(N3CCSC3)n2n1 [Compound 106] | 0.1 to 100 | 100 |
| C[C@@H]1CN(c2cc(N3CCC3)nc3cc([C@@H]4CCCCN4C(=O)c4cc(Cl)ccc4NS(C)(=O)=O)nn23)C[C@H](C)O1 [Compound 107] | 0.1 to 100 | 100 |
| C[C@@H]1CN(c2cc(N3CC(O)C3)nc3cc([C@@H]4CCCCN4C(=O)c4cc(Cl)ccc4NS(C)(=O)=O)nn23)C[C@H](C)O1 [Compound 108] | 0.1 to 100 | 100 |
| CC#Cc1cc(N2CCOCC2)n2nc([C@@H]3CCCCN3C(=O)c3cc(Cl)ccc3NS(C)(=O)=O)cc2n1 [Compound 110] | 0.1 to 100 | 100 |
| CS(=O)(=O)Nc1ccc(Cl)cc1C(=O)N1CCCC[C@H]1c1cc2nc(N3CC(O)C3)cc(N3CC(N)C3)n2n1 [Compound 130] | 0.1 to 100 | 100 |
| CS(=O)(=O)Nc1ccc(Cl)cc1C(=O)N1CCCC[C@H]1c1cc2nc(N3CC(N)C3)cc(N3CC(N)C3)n2n1 [Compound 131] | 0.1 to 100 | 100 |
| CS(=O)(=O)Nc1ccc(Cl)cc1C(=O)N1CCCC[C@H]1c1cc2nc(N3CC[C@@H](O)C3)cc(N3CC(N)C3)n2n1 [Compound 132] | 0.1 to 100 | 97 |
| CS(=O)(=O)Nc1ccc(Cl)cc1C(=O)N1CCCC[C@H]1c1cc2nc(N3CCC3)cc(N3CC(N)C3)n2n1 [Compound 133] | 0.1 to 100 | 96 |
| Cc1cn2nc([C@@H]3CC[C@H](C)CN3C(=O)c3cc(Cl)ccc3NS(C)(=O)=O)cc2nc1N1CC(O)C1 [Compound 135] | 0.1 to 100 | 100 |
| Cc1cn2nc([C@@H]3CC[C@H](C)CN3C(=O)c3cc(Cl)ccc3NS(C)(=O)=O)cc2nc1N1CC[C@@H](O)C1 [Compound 136] | 0.1 to 100 | 100 |
| Cc1cn2nc([C@@H]3CC[C@H](C)CN3C(=O)c3cc(Cl)ccc3NS(C)(=O)=O)cc2nc1N1CC(N)C1 [Compound 137] | 0.1 to 100 | 100 |
| Cc1cn2nc([C@@H]3CC[C@H](C)CN3C(=O)c3cc(Cl)ccc3NS(C)(=O)=O)cc2nc1N1CCC1 [Compound 138] | 0.1 to 100 | 100 |
| Cc1cn2nc([C@@H]3CCCCN3C(=O)c3cc(Cl)ccc3NS(C)(=O)=O)cc2nc1NC(=N)N [Compound 139] | 0.1 to 100 | 99 |
| C[C@H]1CC[C@@H](c2cc3nc(N4CC(N)C4)cc(N4CCOCC4)n3n2)N(C(=O)c2cc(Cl)ccc2NS(C)(=O)=O)C1 [Compound 142] | 0.1 to 100 | 100 |

Now from value to compound, other results behind:

| EC50 [nM] | SMILES | inhibition at 0.5 µM [%] |
| --- | --- | --- |
| 101 to 1000 | Cc1ccc(NS(C)(=O)=O)c(C(=O)N2CCCC[C@H]2c2cc3nc(C)c(C)c(C4CC4)n3n2)c1 [Compound 87] | 84 |
| 0.1 to 100 | CC(=O)Nc1c(C)c(C)nc2cc([C@@H]3CCCCN3C(=O)c3cc(C)ccc3NS(C)(=O)=O)nn12 [Compound 88] | 98 |
| 0.1 to 100 | Cc1ccc(NS(C)(=O)=O)c(C(=O)N2CCC(C)CC2c2cc3[nH]c(C)c(C)c(=O)n3n2)c1 (centres unmarked) [Compound 89] | 100 |
| 0.1 to 100 | Cc1cn2nc([C@@H]3CCCCN3C(=O)c3cc(Cl)ccc3NS(C)(=O)=O)cc2nc1N1CC(C)(O)C1 [Compound 96] | 97 |
| 0.1 to 100 | Cc1ccc(NS(C)(=O)=O)c(C(=O)N2CCCC[C@H]2c2cc3nc(C)c(C)c(N4CCCC4)n3n2)c1 [Compound 98] | 98 |
| 0.1 to 100 | Cc1nc2cc([C@@H]3CCCCN3C(=O)c3cc(Cl)ccc3NS(C)(=O)=O)nn2c(N(C)C)c1C [Compound 99] | 99 |
| 0.1 to 100 | Cc1nc2cc([C@@H]3CCCCN3C(=O)c3ccccc3NS(C)(=O)=O)nn2c(N(C)C)c1C [Compound 100] | 96 |
| 0.1 to 100 | Cc1ccc(NS(C)(=O)=O)c(C(=O)N2CCCC[C@H]2c2cc3nc(C)c(C)c(N(C)C)n3n2)c1 [Compound 101] | 100 |
| 0.1 to 100 | Cc1ccc(NS(C)(=O)=O)c(C(=O)N2CCCC[C@H]2c2cc3nc(C)c(C)c(NC4CC4)n3n2)c1 [Compound 102] | 98 |
| 0.1 to 100 | Cc1ccc(NS(C)(=O)=O)c(C(=O)N2CCCC[C@H]2c2cc3nc(C)c(C)c(C#N)n3n2)c1 [Compound 103] | 98 |
| 0.1 to 100 | Cc1ccc(NS(C)(=O)=O)c(C(=O)N2CCCC[C@H]2c2cc3nc(C)c(C)c(N4CCOCC4)n3n2)c1 [Compound 104] | 100 |
| 0.1 to 100 | Cc1cc(NS(C)(=O)=O)c(C(=O)N2CCCC[C@H]2c2cc3nc(C4CC4)cc(C)n3n2)s1 [Compound 111] | 95 |
| 0.1 to 100 | Cc1ccc(N2CCCC2=O)c(C(=O)N2CCCC[C@H]2c2cc3nc(C4CC4)cc(C)n3n2)c1 [Compound 112] | 97 |
| 0.1 to 100 | Cc1ccc(N2CCCS2(=O)=O)c(C(=O)N2CCCC[C@H]2c2cc3nc(C4CC4)cc(C)n3n2)c1 [Compound 113] | 100 |
| 0.1 to 100 | Cc1cc(C2CC2)nc2cc([C@@H]3CCCCN3C(=O)c3cc(N)ccc3NS(C)(=O)=O)nn12 [Compound 114] | 100 |
| 0.1 to 100 | CCc1ccc(NS(C)(=O)=O)c(C(=O)N2CCCC[C@H]2c2cc3nc(C4CC4)cc(C)n3n2)c1 [Compound 115] | 100 |
| 0.1 to 100 | CCc1ccc(NS(C)(=O)=O)c(C(=O)N2CCCC[C@H]2c2cc3[nH]c(C)c(C)c(=O)n3n2)c1 [Compound 116] | 98 |
| 0.1 to 100 | Cc1cc(C2CC2)nc2cc([C@@H]3CCCCN3C(=O)c3cc(F)c(F)cc3NS(C)(=O)=O)nn12 [Compound 117] | 99 |
| 0.1 to 100 | COC(=O)NC(C(=O)N1CCCC[C@H]1c1cc2nc(C3CC3)cc(C)n2n1)c1ccccc1 (some centres unmarked) [Compound 118] | 99 |
| 0.1 to 100 | Cc1cc(Cl)cc(C(=O)N2CCCC[C@H]2c2cc3[nH]c(C)c(C)c(=O)n3n2)c1NS(C)(=O)=O [Compound 120] | 100 |
| 0.1 to 100 | Cc1cc(C2CC2)nc2cc([C@@H]3CCCCN3C(=O)c3cc(F)cc(Br)c3NS(C)(=O)=O)nn12 [Compound 121] | 97 |
| 0.1 to 100 | Cc1cc(C2CC2)nc2cc([C@@H]3CCCCN3C(=O)c3cc(Br)ccc3NS(C)(=O)=O)nn12 [Compound 122] | 99 |
| 0.1 to 100 | Cc1[nH]c2cc([C@@H]3CCCCN3C(=O)c3cc(F)cc(Cl)c3NS(C)(=O)=O)nn2c(=O)c1C [Compound 127] | 99 |
| 0.1 to 100 | Cc1cn2nc([C@@H]3CCCCN3C(=O)c3cc(Cl)ccc3NS(C)(=O)=O)cc2nc1N1CC(C)C1 [Compound 129] | 100 |
| 0.1 to 100 | Cc1cn2nc([C@@H]3CCCCN3C(=O)c3cc(Cl)ccc3NS(C)(=O)=O)cc2nc1-c1ccccc1 [Compound 134] | 98 |
| 0.1 to 100 | Cc1cn2nc([C@@H]3CCCCN3C(=O)c3cc(Cl)ccc3NS(C)(=O)=O)cc2nc1N1CCCN1 [Compound 140] | 100 |
| 0.1 to 100 | Cc1cn2nc([C@@H]3CCCCN3C(=O)c3cc(Cl)ccc3NS(C)(=O)=O)cc2nc1N1CCCCN1 [Compound 141] | 95 |
